From patent US11066416B2, “Rapafucin derivative compounds and methods of use thereof” (The Johns Hopkins University, priority 2016, dated 2021)

Assays:
293T = test: Nucleoside uptake assay (uptake) using 3H-Thymidine, 293T; type: cell-based; conditions: 293T cells
Procedure: Nucleoside Uptake Assay (uptake). Nuceloside uptake assays were performed with using 3H-Thymidine as described in Guo et al. (2018) Nat. Chem. 11:254-63. Specific cell lines are indicated in each assay and cultured in complete growth media. Activity is scored according to the IC50 values relative to DMSO control. “Low” indicates an IC50 greater than 600 nM, “Medium” indicates an IC50 between 300 nM and 600 nM “High” indicates an IC50 less than 300 nM. “Rel.Uptake” refers to uptake activity characterization relative to a single concentration assay. “Low” indicates a response greater than 0.6 times the activity relative to DMSO, “Medium” indicates a response between 0.6 and 0.3 times the activity relative to DMSO, “High” indicates a response less than 0.3 times the activity relative to DMSO.

[1] = test system: nucleoside uptake (3H-Thymidine); test: Rel.Uptake: nucleoside uptake, single concentration assay, cell line as indicated in each table; type: cell-based; conditions: response relative to DMSO
In short: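 3H-thymidine uptake measured in the indicated cell lines (e.g. 293T) grown in complete media. IC50 scored relative to DMSO control as Low >600 nM, Medium 300-600 nM, High <300 nM; Rel.Uptake single-concentration response vs DMSO scored Low >0.6, Medium 0.3-0.6, High <0.3.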

[2] = IC50 class relative to DMSO control

| SMILES | Rel. Uptake, 293T ([1]; 293T, nucleoside uptake) | Uptake, 293T (293T; [2]) | also measured |
| --- | --- | --- | --- |
| COc1ccc(CC[C@H]2OC(=O)[C@@H]3CCCCN3C(=O)C(=O)C(C)(C)COC(=O)C=CCCN(C)C(=O)[C@H](CC(C)C)N(C)C(=O)[C@H]3CCCN3C(=O)[C@H](Cc3ccc(C(=O)Nc4ccccc4)cc3)NC(=O)[C@H](c3ccccc3)NC(=O)CCC(=O)Nc3cccc2c3)cc1OC [Compound 1559] | medium | – | Uptake, 293T (293T; Table 15): medium |
| COc1ccc(CC[C@H]2OC(=O)[C@@H]3CCCCN3C(=O)C(=O)C(C)(C)COC(=O)C=CCCN(C)C(=O)[C@H](CC(C)C)N(C)C(=O)[C@H]3CCCN3C(=O)[C@H](Cc3ccc(OCc4ccccc4)cc3)NC(=O)C(c3ccccc3)NC(=O)CCC(=O)Nc3cccc2c3)cc1OC (stereo partly drawn) [Compound 1082] | – | low | Rel. Uptake, 293T ([1]; 293T): low |
| COc1ccc(CC[C@H]2OC(=O)[C@@H]3CCCCN3C(=O)C(=O)C(C)(C)COC(=O)C=CCCN(C)C(=O)[C@H](CC(C)C)N(C)C(=O)[C@H]3CCCN3C(=O)[C@H](Cc3ccc(NC(=O)Cc4cccnc4)cc3)NC(=O)[C@H](c3ccccc3)NC(=O)CCC(=O)Nc3cccc2c3)cc1OC [Compound 1589] | Low (“Low” indicates a response greater than 0.6 times the activity relative to DMSO) | – | IC50 (293T; Table 14): > 600 nM |
| COc1ccc(CC[C@H]2OC(=O)[C@@H]3CCCCN3C(=O)C(=O)C(C)(C)COC(=O)C=CCCN(C)C(=O)[C@H](CC(C)C)N(C)C(=O)[C@H]3CCCN3C(=O)[C@H](Cc3ccc(CNC(=O)Cc4ccccc4)cc3)NC(=O)[C@H](c3ccccc3)NC(=O)CCC(=O)Nc3cccc2c3)cc1OC [Compound 1586] | Med | – | Uptake, 293T (293T; Table 14): Med |
| COc1ccc(CC[C@H]2NC(=O)[C@@H]3CCCCN3C(=O)C(=O)C(C)(C)COC(=O)C=CCCN(C)C(=O)[C@H](CC(C)C)N(C)C(=O)[C@H]3CCCN3C(=O)[C@H](Cc3ccccc3)N(C)C(=O)C(c3ccccc3)NC(=O)CCC(=O)Nc3cccc2c3)cc1OC (stereo partly drawn) [Compound 1557] | high | high | – |
| COc1ccc(CC[C@H]2OC(=O)[C@@H]3CCCCN3C(=O)C(=O)C(C)(C)COC(=O)C=CCCN(C)C(=O)[C@H](CC(C)C)N(C)C(=O)[C@H]3CCCN3C(=O)[C@H](Cc3ccccc3)N(C)C(=O)[C@H](CC(=O)OC(C)(C)C)NC(=O)CCC(=O)Nc3cccc2c3)cc1OC [Compound 1088] | – | low | Rel. Uptake, 293T ([1]; 293T cells): low |
| COc1ccc(CC[C@H]2OC(=O)[C@@H]3CCCCN3C(=O)C(=O)C(C)(C)COC(=O)C=CCCN(C)C(=O)[C@H](CC(C)C)N(C)C(=O)[C@H]3CCCN3C(=O)[C@H](Cc3ccc(C(=O)NCCO)cc3)NC(=O)[C@H](c3ccccc3)NC(=O)CCC(=O)Nc3cccc2c3)cc1OC [Compound 1558] | high | – | Uptake, 293T (293T; Table 15): high |
| COc1ccc(CC[C@H]2OC(=O)[C@@H]3CCCCN3C(=O)C(=O)C(C)(C)COC(=O)C=CCCN(C)C(=O)[C@H](CC(C)C)N(C)C(=O)[C@H]3CCCN3C(=O)[C@H](Cc3ccc(CC(=O)NCc4ccccc4)cc3)NC(=O)[C@H](c3ccccc3)NC(=O)CCC(=O)Nc3cccc2c3)cc1OC [Compound 1590] | High (“High” indicates a response less than 0.3 times the activity relative to DMSO) | – | IC50 (293T; Table 15): > 600 nM |
| COc1ccc(CC[C@H]2OC(=O)[C@@H]3CCCCN3C(=O)C(=O)C(C)(C)CNC(=O)C=CCCN(C)C(=O)[C@H](CC(C)C)N(C)C(=O)[C@H]3CCCN3C(=O)[C@H](Cc3ccccc3)N(C)C(=O)C(c3ccccc3)NC(=O)CCC(=O)Nc3cccc2c3)cc1OC (stereo partly drawn) [Compound 1555] | high | high | – |
